Measurements taken from paper PMC10053807, “Natural Lipid Extracts as an Artificial Membrane for Drug Permeability Assay: In Vitro and In Silico Characterization” (Pharmaceutics, 2023).

Key:
[1] = PAMPA permeability, brain polar lipid extract (BPLE) membrane; conditions: for Mean logPe / Mean Pe: Brain Polar lipid extract membrane, n=3; for Papp at 4 h, 100 μM: pig, PAMPA, pH 7.4; for Mean Pe: * = not detected at acceptor side, value calculated from limit of detection
[2] = PAMPA permeability, liver total lipid extract (LTLE) membrane; conditions: for Mean logPe / Mean Pe: Liver total lipid extract membrane, n=3; for Mean Pe: * = not detected at acceptor side, value calculated from limit of detection; for Papp at 4 h, 100 μM: bovine, PAMPA, pH 7.4
[3] = PAMPA permeability, brain total lipid extract (BTLE) membrane; conditions: for Mean logPe / Mean Pe: Brain total lipid extract membrane, n=3; for Papp at 4 h, 100 μM: pig, PAMPA, pH 7.4; for Mean Pe: * = not detected at acceptor side, value calculated from limit of detection
[4] = PAMPA permeability, heart total lipid extract (HTLE) membrane; conditions: for Mean logPe / Papp at 4 h, 100 μM / Mean Pe: Heart total lipid extract membrane, n=3; for Papp at 4 h, 100 μM: bovine, PAMPA; for PAMPA permeability on HTLE: pH 7.4, 4 h, 37 °C, in words (PCA biplot, Figure 11B)
[5] = PAMPA permeability, heart polar lipid extract (HPLE) membrane; conditions: for Mean logPe / Mean Pe: Heart Polar lipid extract membrane, n=3; for Papp at 4 h, 100 μM: bovine, PAMPA, pH 7.4; for Mean Pe: * = not detected at acceptor side, value calculated from limit of detection
[6] = PAMPA permeability, comparison across the six natural lipid extract membranes; conditions: for total-polar permeability comparison: heart, liver and brain extracts, Figure 10A–C
[7] = PAMPA permeability, liver polar lipid extract (LPLE) membrane; conditions: for Papp at 4 h, 100 μM: bovine, PAMPA
[8] = pH 7.4, Mean Pe, * = not detected at acceptor side, value calculated from limit of detection
[9] = pH 7.4, Mean Pe, n=3, * = not detected at acceptor side, value calculated from limit of detection
[10] = * = not detected at acceptor side, value calculated from limit of detection
[11] = n=3, * = not detected at acceptor side, value calculated from limit of detection

Compound	Mean logPe [1]	Papp at 4 h, 100 μM [1]	Mean logPe [2]	Mean logPe [3]	Papp at 4 h, 100 μM [3]	Mean logPe [4]	Mean logPe [5]	Mean logPe ([7]; n=3)	Mean Pe [2]	Papp at 4 h, 100 μM [2]	Papp at 4 h, 100 μM [4, 8]	Papp at 4 h, 100 μM [5]	Papp at 4 h, 100 μM [7, 9]	Mean Pe [1]	Mean Pe [3]	Mean Pe [4, 10]	Mean Pe [5]	Papp at 4 h, 100 μM ([4]; pH 7.4, Mean logPe)	also measured
O=C1CN=C(c2ccccc2)c2cc([N+](=O)[O-])ccc2N1 [nitrazepam]	-4.67	21.5 ×10⁻⁶ cm/s	-4.26	-4.47	34.1 ×10⁻⁶ cm/s	-4.46	-4.54	-4.60											total-polar permeability comparison [6]: higher permeability in total lipids
COc1ccc2c(c1)N(C[C@H](C)CN(C)C)c1ccccc1S2 [levomepromazine]	-4.83	15.1 ×10⁻⁶ cm/s		-4.89	15.8 ×10⁻⁶ cm/s	-4.90	-5.20		< 3,7* 10-6 cm/s	< 3.72 ×10⁻⁶ cm/s	13.2 ×10⁻⁶ cm/s	6.57 ×10⁻⁶ cm/s	28.5 ×10⁻⁶ cm/s						total-polar permeability comparison [6]: heart total-liver polar; Papp at 4 h, 100 μM ([7]; pH 7.4, Mean logPe, n=3): 23.4 ×10⁻⁶ cm/s
Nc1c(Br)cc(Br)cc1CN[C@H]1CC[C@H](O)CC1 [ambroxol]			-4.27			-4.40	-4.21	-4.26		54 ×10⁻⁶ cm/s		61.8 ×10⁻⁶ cm/s	54.5 ×10⁻⁶ cm/s						
NC(=O)Cc1cccc(C(=O)c2ccccc2)c1N [nepafenac]	-4.67	21.3 ×10⁻⁶ cm/s	-4.14	-4.61	24.4 ×10⁻⁶ cm/s	-4.73	-4.59	-4.44		72.9 ×10⁻⁶ cm/s	18.8 ×10⁻⁶ cm/s	25.9 ×10⁻⁶ cm/s	38.6 ×10⁻⁶ cm/s						
CC(C)Cc1ccc(C(C)C(=O)O)cc1 (stereo not shown) [ibuprofen]	-5.12	7.64 ×10⁻⁶ cm/s	-4.54	-5.05	8.97 ×10⁻⁶ cm/s	-4.76	-4.62	-4.61		29 ×10⁻⁶ cm/s	17.3 ×10⁻⁶ cm/s	24.2 ×10⁻⁶ cm/s	25.1 ×10⁻⁶ cm/s						dependence of permeability on the lipid extract (PCA biplot) ([6]; compounds near the abscissa of the PCA biplot, Figure 12): independent of the investigated lipids
Cn1c(=O)c2c(ncn2C)n(C)c1=O [caffeine]	-5.53	2.97 ×10⁻⁶ cm/s	-4.7	-5.71	1.96 ×10⁻⁶ cm/s	-5.59	-5.39	-4.95		20.3 ×10⁻⁶ cm/s	2.62 ×10⁻⁶ cm/s	4.19 ×10⁻⁶ cm/s	11.3 ×10⁻⁶ cm/s						PAMPA permeability on HTLE [4]: low
CCOC(=O)[C@H](CCc1ccccc1)N[C@@H](C)C(=O)N1[C@H](C(=O)O)C[C@@H]2CCC[C@@H]21 [ramipril]													2.23 ×10⁻⁶ cm/s	< 0,86* 10-6 cm/s	< 0,86* 10-6 cm/s	< 0,87* 10-6 cm/s	< 0,98* 10-6 cm/s		
CCn1cc(C(=O)O)c(=O)c2cc(F)c(N3CCNCC3)cc21 [norfloxacin]	< -6.30				< 0.49 ×10⁻⁶ cm/s		-5.80		< 0,5* 10-6 cm/s	< 0.501 ×10⁻⁶ cm/s		1.59 ×10⁻⁶ cm/s	7.17 ×10⁻⁶ cm/s	< 0,50* 10-6 cm/s	< 0,49* 10-6 cm/s	< 0,54* 10-6 cm/s		< 0.537 ×10⁻⁶ cm/s	Papp at 4 h, 100 μM ([7]; pH 7.4, Mean logPe, n=3): 5.25 ×10⁻⁶ cm/s
COCCc1ccc(OCC(O)CNC(C)C)cc1 (stereo not shown) [metoprolol]			-4.4			-5.04	-4.96			40.1 ×10⁻⁶ cm/s			13.2 ×10⁻⁶ cm/s						Papp at 4 h, 100 μM ([7]; pH 7.4, Mean logPe, n=3): 19.5 ×10⁻⁶ cm/s
CC(C)c1nc(N(C)S(C)(=O)=O)nc(-c2ccc(F)cc2)c1/C=C/[C@@H](O)C[C@@H](O)CC(=O)O [rosuvastatin]	< -6.32		< -6.32	< -6.33				< -6.32	< 0,48* 10-6 cm/s			< 0.468 ×10⁻⁶ cm/s		< 0,48* 10-6 cm/s	< 0,46* 10-6 cm/s	< 0,48* 10-6 cm/s	< 0,46* 10-6 cm/s	< 0.479 ×10⁻⁶ cm/s	Mean Pe [7, 11]: < 0,48* 10-6 cm/s
CO/N=C(\C(=O)N[C@@H]1C(=O)N2C(C(=O)O)=C(COC(N)=O)CS[C@H]12)c1ccco1 [cefuroxime]	-5.94	1.14 ×10⁻⁶ cm/s	< -5.94	-5.89	1.28 ×10⁻⁶ cm/s	-5.91	< -5.89	-5.17	< 1,14* 10-6 cm/s		1.25 ×10⁻⁶ cm/s		7.1 ×10⁻⁶ cm/s				< 1,28* 10-6 cm/s		
CC1=NNS(=O)(=O)c2c1ccc(Cl)c2Cl [PGY0072]	-5.38		-4.66	-5.50	3.23 ×10⁻⁶ cm/s	-5.40	-5.35	-4.91		22.2 ×10⁻⁶ cm/s	4.26 ×10⁻⁶ cm/s	4.67 ×10⁻⁶ cm/s	12.2 ×10⁻⁶ cm/s	4.23 10-6 cm/s					PAMPA permeability on HTLE [4]: low
NC(N)=Nc1nc(CSCCC(N)=NS(N)(=O)=O)cs1 [famotidine]	< -6.48			< -6.47				< -6.49	< 0,33* 10-6 cm/s	< 0.331 ×10⁻⁶ cm/s		< 0.339 ×10⁻⁶ cm/s		< 0,33* 10-6 cm/s	< 0,34* 10-6 cm/s	< 0,33* 10-6 cm/s	< 0,34* 10-6 cm/s	< 0.324 ×10⁻⁶ cm/s	Mean Pe [7, 11]: < 0,33* 10-6 cm/s
N=C(N)c1ccc(OCCCOc2ccc(C(=N)N)cc2)cc1 [propamidine]	< -6.12		< -6.12	< -6.13				< -6.12	< 0,76* 10-6 cm/s			< 0.741 ×10⁻⁶ cm/s		< 0,76* 10-6 cm/s	< 0,73* 10-6 cm/s	< 0,76* 10-6 cm/s	< 0,73* 10-6 cm/s	< 0.759 ×10⁻⁶ cm/s	Mean Pe [7, 11]: < 0,76* 10-6 cm/s
CCn1cc(C(=O)O)c(=O)c2cc(F)c(N3CCNCC3)nc21 [enoxacin]	-5.12	7.58 ×10⁻⁶ cm/s	-5.37	-5.36	4.48 ×10⁻⁶ cm/s		-5.44	-5.46		4.25 ×10⁻⁶ cm/s	0.4 ×10⁻⁶ cm/s	3.7 ×10⁻⁶ cm/s	3.49 ×10⁻⁶ cm/s					0.589 ×10⁻⁶ cm/s	
CN1C(C(=O)Nc2ccccn2)=C(O)c2ccccc2S1(=O)=O [piroxicam]	-5.64	2.35 ×10⁻⁶ cm/s	-4.79	-5.45	3.57 ×10⁻⁶ cm/s			-4.99		16.3 ×10⁻⁶ cm/s	1.92 ×10⁻⁶ cm/s		10.3 ×10⁻⁶ cm/s					2.88 ×10⁻⁶ cm/s	PAMPA permeability on HTLE [4]: low
O=C1CC2(CCCC2)CC(=O)N1CCCCN1CCN(c2ncccn2)CC1 [buspirone]													57 ×10⁻⁶ cm/s						total-polar permeability comparison [6]: higher permeability in polar lipids
CC1Cc2ccccc2N1NC(=O)c1ccc(Cl)c(S(N)(=O)=O)c1 (stereo not shown) [indapamide]	-5.19	6.6 ×10⁻⁶ cm/s	-4.61	-5.29	5.22 ×10⁻⁶ cm/s	-5.69	-5.28	-4.77		24.5 ×10⁻⁶ cm/s	2.04 ×10⁻⁶ cm/s	5.37 ×10⁻⁶ cm/s	16.9 ×10⁻⁶ cm/s						
CC(CCc1ccccc1)NCC(O)c1ccc(O)c(C(N)=O)c1 (stereo not shown) [labetalol]	-4.65	22.2 ×10⁻⁶ cm/s	-4.42	-4.83	15.1 ×10⁻⁶ cm/s	-5.27	-5.08	-4.72		38 ×10⁻⁶ cm/s	5.37 ×10⁻⁶ cm/s	8.38 ×10⁻⁶ cm/s	19 ×10⁻⁶ cm/s						
ondansetron	-4.71			-4.63		-5.01	-4.86	-4.59	57.25 10-6 cm/s					19.60 10-6 cm/s	23.49 10-6 cm/s	9.85 10-6 cm/s	13.69 10-6 cm/s		Mean Pe [7, 11]: 25.69 10-6 cm/s
